Assay results reported in PMC2632303 (Journal of molecular biology, 2008).
Where no end group is shown, it is not given here.

Legend:
human 20S proteasome [1] = target: T1, human 20S proteasome (Homo sapiens, UniProt P25788); test: Ki determinations, non-competitive kinetics with Suc-LLVY-AMC; type: biochemical; conditions: for Ki relative to PR11: comparison of Table III values
20S proteasome = conditions: cited from earlier work
human 20S proteasome [2] = target: T1, human 20S proteasome; test: Inhibition of chymotrypsin-like activity of 20S proteasome by PR-peptides; type: biochemical; conditions: same experiment as I50; n of Eq. 1

| Sequence | Ki (human 20S proteasome [1]) [nM] | Ki relative to PR11 (human 20S proteasome [1]) | other results |
| --- | --- | --- | --- |
| RRRPRPPALPRW [Peptide A8W12] | 50.7 | nearly half of PR11 |  |
| RRRPRPPFLPRW [Peptide F8W12] | 184 | about two-fold greater than that of PR11 |  |
| RRRPRPPY [PR8] |  |  | Inhibition of 20S proteasome (20S proteasome): does not inhibit 20S proteasome |
| RRRPRPPYLPR [PR11] | 86.5 |  |  |
| RRRPRPPYLPRPRPPPFFPPRLPPRIPPGFPPRFPPRFP [PR39] |  |  | N (fractional occupation of PR-peptide on 20S proteasome, derived from curve-fitting) (human 20S proteasome [2]): 1.232 |
| RRRPRPPYLPRW [Peptide W12] | 39.5 |  |  |
